The subject of data set [1] is E. coli (ATCC 25922). The data set can be described thus: Reduction of viability by plate count, E. coli. In kind it is cell-based, Escherichia coli. To be noted: 4 μg/mL. Here is the method:
(§1) An overnight culture (12 to 16 h) of S. aureus (ATCC 29213) or E. coli (ATCC 25922) in Tryptic Soy Broth (TSB) was grown at 37 °C and 400 μL were added in 50 mL of tryptone water (∼10^7 bacteria/mL). The bacterial suspension was split into aliquots of 4-5 mL and treated with the peptides (at the MIC) for different incubation times at room temperature. Cells were collected by centrifugation (10000 rpm, 20 min) and resuspended in 1 mL of filtered Ringer’s solution.

The test system of data set [2] is S. aureus (ATCC 29213). The data set can be described thus: Flow cytometry (PI membrane permeability, BOX membrane potential), S. aureus. In kind it is cell-based, Staphylococcus aureus. To be noted: 4 μg/mL. Here is the method: (§2) The mechanism of action at the membrane level of our best candidate was studied using flow cytometry. To assess membrane permeability, a propidium iodide (PI) probe was used[43][44]. The fluorescence conferred by this probe is generally associated with cells that have lost their membrane integrity. The effect on membrane potential was evaluated with bis-(1,3-dibutylbarbituric acid) trimethine oxonol (BOX). Membrane depolarization leads to the incorporation of this anionic dye into the cell where it binds to lipid-rich intracellular compounds, resulting in an increase in fluorescence.
as §1
(§3) A stock solution of propidium iodide (PI, 1 mg/mL, Molecular Probes) and bis-(1,3-dibutylbarbituric acid) trimethine oxonol (BOX, 250 μM, Sigma Aldrich) was prepared in distilled water. Portions (10 μL and 2 μL, respectively) were added to aliquots of cells (100 μL of each sample in 1 mL of Ringer’s solution) to give a final concentration of 10 μg/mL of PI and 0.5 μM for BOX.
(§4) Flow cytometric measurements were performed on a Gallios multi-colour flow cytometer instrument (Beckman Coulter, Inc, Fullerton, CA) set up with the 3-lasers 10 colors standard configuration. Excitation was done using a blue (488 nm) laser. Forward scatter (FS), side scatter (SS), green fluorescence (525/40 nm) from BOX and red fluorescence (620/30 nm) emitted by PI were collected using logarithmic scales. FS was used as the discriminating parameter. The single-cell bacterial population was selected on a forward-side scatter plot. Fluorescence was presented in a dot plot of BOX vs. PI. Three regions were defined on this graph according to the controls: depolarized, permeabilized and non-affected cells. Control cells (non-stained and single stained populations) were used to define these regions. 25,000 cells defined according to their scatter parameters were counted in each sample.
For orientation: Flow cytometry measures light scatter and fluorescence of single cells or particles in a stream.

A further data set concerns CD-1 mice. Nature of the data set: In vivo acute toxicity test (up-and-down procedure, OECD 425). To be noted: for Outcome of mice: CD-1 mice. On the procedure:
(§5) An in vivo acute toxicity test was performed on CD-1 mice. The lethal dose (LD50) was determined according to the up-and-down procedure. Compound 38 was administered subcutaneously at designated doses (100, 200 and 400 mg/kg).
(§6) The evaluation of acute toxicity was conducted based on OECD 425 (Acute Oral Toxicity – Up-and-Down-Procedure (UDP) March 2006). The procedure was evaluated and accepted by the Ethical Committee of Experimental Animals of the University of Barcelona.
(§7) The main test consists of a single ordered dose progression in which animals are dosed, one at a time, at a minimum of 24-hour intervals.
(§8) Compound 38 was dissolved in PBS (pH 7.4), and administered subcutaneously to CD-1 mice at selected doses (100, 200 and 400 mg/kg). Since 5 reversals occurred in 6 consecutive animals tested between the 200 mg/Kg dose (the 3 animals, survived), and the 400 mg/Kg dose (the 3 animals died) the test was stopped.
(§9) Mortality was monitored for 14 days post-treatment, and LD50 was determined using the maximum likelihood method.

Assay in data set [3]: as above
The arrangement: species or system mice. To be noted: mouse, in vivo, sc; CD-1 mice, subcutaneous, up-and-down procedure, maximum likelihood method, 14 days. Here is the method: as §5, §6, §7, §8, §9

The test system of data set [4] is S. aureus (ATCC 29213). Nature of the data set: Reduction of viability by plate count, S. aureus. In kind it is cell-based, Staphylococcus aureus. To be noted: 4 μg/mL. On the procedure:
as §1

In a further data set the test system is P. aeruginosa ATTC 9027. The format is cell-based, Pseudomonas aeruginosa. To be noted: ATTC 9027. In short, it runs like this:
(§10)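 MIC determined by broth microdilution in Mueller Hinton Broth, read after 18–20 h incubation. Part of the MIC testing was run in non-binding surface plates.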

Data set [5] has as its system P. aeruginosa. On the procedure:
(§11) Strains of E. coli and P. aeruginosa with resistance to quinolones and carbapenems as well as multi-drug-resistant bacteria were tested.
(§12) MICs were measured after 18–20 h of incubation in sterile 96-well plates (Corning Costar 3598 microtiter plates) in Mueller Hinton Broth (MHB) culture medium, (Difco, USA), according to well known in vitro protocols. Bacterial strains in Table 1 were: P. aeruginosa ATTC 9027, E. coli ATTC 8739, S. aureus ATTC 6538, and E. faecalis ATTC 29212. MICs shown in table 4 were performed by Mary Conrad at Cubist Pharmaceuticals (Lexington, MA) in non-binding surface plates.

In another data set the test system is E. coli. On the procedure: as §11, §12
For data set [6], the system named is E. coli (ATCC 25922). Nature of the data set: Transmission electron microscopy of treated E. coli. The format is cell-based, Escherichia coli. To be noted: 120 min, 2 μg/mL (Figure 2 legend). On the procedure: (§13) An overnight culture (12 to 16 h) of S. aureus (ATCC 29213) or E. coli (ATCC 25922) in Tryptic Soy Broth (TSB) was grown at 37 °C and 500 μL were added in 50 mL of tryptone water (∼10^8 bacteria/mL). […] Cells were collected by centrifugation (10000 rpm, 20 min).
(§14) Samples were fixed with 2.5% glutaraldehyde in phosphate buffer for 2 h at 4 °C, then washed with the same buffer and post fixed with 1% osmium tetroxide in buffer containing 0.8% potassium ferricyanide at 4 °C. The samples were then dehydrated for 1 hour in acetone and infiltrated in a gradded series of Epon resin (Ted Pella Inc., USA) during 2 days, and finally embedded in fresh Epon resin and polymerised at 60 °C during 48 hours.
(§15) Ultrathin sections were obtained using a Leica Ultracut UCT ultramicrotome (Leica, Vienna) and mounted on Formvar-coated copper grids. Sections were stained with 2% aqueous uranyl acetate and lead citrate and examined in a JEM-1010 electron microscope (Jeol, Japan).

A further data set relates to E. coli ATTC 8739. In kind it is cell-based, Escherichia coli. To be noted: ATTC 8739. In short, it runs like this:
as §10

Data set [7] relates to E. coli (ATCC 25922). The data set can be described thus: Flow cytometry (PI membrane permeability, BOX membrane potential), E. coli. In kind it is cell-based, Escherichia coli. To be noted: 4 μg/mL. Here is the method: as §2, §1, §3, §4
In data set [8] the test system is S. aureus (ATCC 29213). Nature of the data set: Transmission electron microscopy of treated S. aureus. In kind it is cell-based, Staphylococcus aureus. To be noted: 4 μg/mL, 120 min. Here is the method: as §13, §14, §15
The subject of data set [9] is P. aeruginosa. To be noted: P. aeruginosa 40b strain characterisation; cited from earlier work.
Setting [10] is: resistant to nalidixic acid, cotrimoxazole and ampicillin.

In brackets after ≈: the same amount, converted by molar mass. Entries after “also recorded” stand apart in the source; their conditions may differ. Bridge positions count the residues as written; N and C are the ends. Square brackets hold non-standard residues; d marks the D form. Peptide text beside a SMILES is read from it. * marks the point of attachment. Decanoyl = CCCCCCCCCC(=O)*; Nle = CCCC[C@H](N)C(=O)O; Dab = NCC[C@H](N)C(=O)O

One may read the LD50 as the dose expected to kill half of the subjects tested. Lower therefore signals greater toxicity.

For `CCCCCCCCCC(=O)N[C@@H](CCN)C(=O)N[C@H](C(=O)N[C@@H](CCN)C(=O)N[C@H]1CSSC[C@H](C(N)=O)NC(=O)[C@H](CCN)NC(=O)[C@H](CCN)NC(=O)[C@H](CCCC)NC(=O)[C@@H](Cc2ccccc2)NC(=O)[C@H](CCN)NC1=O)[C@@H](C)O` [Analog 38, decanoyl -Dab-Thr-Dab-Cys-Dab-Phe-Nle-Dab-Dab-Cys] (Decanoyl-[Dab]T[Dab]C[Dab][dF][Nle][Dab][Dab][dC]-NH2; disulfide 4-10), the “% viability reduction” value in the data set with E. coli (ATCC 25922) [1] (30 min) is given as 20%; with E. coli (ATCC 25922) [1] (60 min) it was 60%; in the data set with E. coli (ATCC 25922) [1] (120 min) it was 85%; with S. aureus (ATCC 29213) [4] (30 min), 15%; with S. aureus (ATCC 29213) [4] (60 min), 60%; in the data set with S. aureus (ATCC 29213) [4] (120 min), 85%. Further, the “% of stained cells BOX” value in the data set with S. aureus (ATCC 29213) [2] (30 min) is given as 1%; in the data set with S. aureus (ATCC 29213) [2] (60 min), 1%; in the data set on S. aureus (ATCC 29213) [2] (120 min) it was 4%; in the data set with E. coli (ATCC 25922) [7] (30 min, listed as 38), “around 50%”; in the data set on E. coli (ATCC 25922) [7] (30 min, listed as #38) it was 47%; in the data set with E. coli (ATCC 25922) [7] (60 min) it was 50%. Further, the “% of stained cells BOX” value in the data set with E. coli (ATCC 25922) [7] (120 min) stood at 47%. In addition, the “% of stained cells PI” value with S. aureus (ATCC 29213) [2] (30 min) was 2%; in the data set with S. aureus (ATCC 29213) [2] (60 min), 3%; in the data set with S. aureus (ATCC 29213) [2] (120 min), 4%; in the data set with E. coli (ATCC 25922) [7] (30 min) it was 7%; in the data set with E. coli (ATCC 25922) [7] (60 min), 23%; with E. coli (ATCC 25922) [7] (120 min) it was 43%. Moreover, the Outcome of mice entry in the data set with CD-1 mice (100 mg/kg subcutaneous) is “survived with no signs of toxicity”; in the data set with CD-1 mice (200 mg/kg subcutaneous), “survived with no signs of toxicity; also recorded: survived”; in the data set with CD-1 mice (400 mg/kg subcutaneous), “died”. Also, the “Necropsy of surviving mice” value in the data set on CD-1 mice (200 mg/kg subcutaneous, after 14 days) was “no signs of pathology in vital organs”. Besides, the “LD50 relative to LD50 of PxB” value in the data set on CD-1 mice (subcutaneous) is reported as about 5 times. The same molecule yielded an LD50 at 14 days in data set [3] of 283 mg/kg. The “MIC P. aeruginosa” value against P. aeruginosa ATTC 9027 was 1 µg/mL (≈ 0.808 µM). The “MIC P. aeruginosa 38a” value in the data set on P. aeruginosa [5] was 0.5 µg/mL (≈ 0.404 µM). Further, the “MIC P. aeruginosa 40b” value in the data set on P. aeruginosa [5] was determined as 4 µg/mL (≈ 3.23 µM). Also, the “MIC E. coli NDM-1” value against E. coli (highly-resistant, New Delhi metallo-beta-lactamase gene) came out at 0.5 µg/mL (≈ 0.404 µM). In addition, in the data set with E. coli (resistant to nalidixic acid), the “MIC E. coli VAL 5” value worked out at 0.5 µg/mL (≈ 0.404 µM). The “MIC E. coli MAC 21a” value against E. coli (setting [10]) is 0.5 µg/mL (≈ 0.404 µM). Also, the “MIC E. coli VAL 10” value with E. coli (setting [10]) amounted to 0.5 µg/mL (≈ 0.404 µM). The “Effect on cell morphology (TEM)” value in the data set with E. coli (ATCC 25922) [6] is “abnormal membrane septation and the formation of blebs on the bacterial surface”; in the data set on S. aureus (ATCC 29213) [8] it was “numerous double-layered spherical mesosome-like structures”. Further, the “MIC E. coli” value against E. coli ATTC 8739 was 2 µg/mL (≈ 1.62 µM).
`C[C@@H](O)[C@H]1C(=O)N2C(C(=O)O)=C(SCCN=CN)C[C@H]12` [Imipenem]: in the data set on P. aeruginosa [9], the “MIC, resistance profile of P. aeruginosa 40b” value was “imipenem (MIC 32 mg/L)”.
